Test results published in patent US11464770B2, “Anticancer pharmaceutical composition” (NATIONAL CANCER CENTER, priority 2016, dated 2022).
Like-named read-outs stand apart in the source and are kept apart here.

System: breast cancer cell lines (e.g. MDA-MB-231, SK-BR-3, MDA-MB-468, HCC1954)
Test: Cell based assay, cell viability (CellTiter-Glo), breast cancer cell lines
Procedure: Commercially available bladder cancer, prostate cancer, lung cancer, breast cancer, blood cancer, pancreatic cancer, colorectal cancer, brain cancer, neuroblastoma, melanoma, liver cancer, cervical carcinoma, ovarian cancer, renal cancer, and papilloma cell lines were each treated with trypsin-EDTA and cultured, followed by being seeded in each well of a 96 well plate. After 24 hours of treatment at constant temperature, the respective cells were treated with the candidate compound so that a final concentration became 0 to 2 μM. The treated cells were additionally cultured for 72 hours, and cell viability was measured by using an ATP detection method (CellTiter-Glo® Luminescent Cell Viability Assay, Promega).

[1] = Breast cancer cell line MDA-MB-231-L/DOX, 72 hours, CellTiter-Glo, read-out: IC50, MDA-MB-231-L/DOX
[2] = Homo sapiens, Breast cancer cell line BT-20, 72 hours, CellTiter-Glo, read-out: IC50, BT-20
[3] = Homo sapiens, Breast cancer cell line HCC1395, 72 hours, CellTiter-Glo, read-out: IC50, HCC1395
[4] = Homo sapiens, Breast cancer cell line HCC1954, 72 hours, CellTiter-Glo, read-out: IC50, HCC1954
[5] = Homo sapiens, Breast cancer cell line JIMT-1, 72 hours, CellTiter-Glo, read-out: IC50, JIMT-1
[6] = Homo sapiens, Breast cancer cell line MCF7, 72 hours, CellTiter-Glo, read-out: IC50, MCF7
[7] = Homo sapiens, Breast cancer cell line MDA-MB-231, 72 hours, CellTiter-Glo, read-out: IC50, MDA-MB-231
[8] = Homo sapiens, Breast cancer cell line MDA-MB-468, 72 hours, CellTiter-Glo, read-out: IC50, MDA-MB-468
[9] = Homo sapiens, Breast cancer cell line SK-BR-3, 72 hours, CellTiter-Glo, read-out: IC50, SK-BR-3
[10] = Homo sapiens, BT-20 cells, 72 hours treatment, CellTiter-Glo cell viability, read-out: IC50, Breast cancer cell line BT-20
[11] = Homo sapiens, HCC1395 cells, 72 hours treatment, CellTiter-Glo cell viability, read-out: IC50, Breast cancer cell line HCC1395
[12] = Homo sapiens, HCC1954 cells, 72 hours treatment, CellTiter-Glo cell viability, read-out: IC50, Breast cancer cell line HCC1954
[13] = Homo sapiens, JIMT-1 cells, 72 hours treatment, CellTiter-Glo cell viability, read-out: IC50, Breast cancer cell line JIMT-1
[14] = Homo sapiens, MCF7 cells, 72 hours treatment, CellTiter-Glo cell viability, read-out: IC50, Breast cancer cell line MCF7
[15] = Homo sapiens, MDA-MB-231 cells, 72 hours treatment, CellTiter-Glo cell viability, read-out: IC50, Breast cancer cell line MDA-MB-231
[16] = Homo sapiens, MDA-MB-468 cells, 72 hours treatment, CellTiter-Glo cell viability, read-out: IC50, Breast cancer cell line MDA-MB-468
[17] = Homo sapiens, SK-BR-3 cells, 72 hours treatment, CellTiter-Glo cell viability, read-out: IC50, Breast cancer cell line SK-BR-3
[18] = MDA-MB-231-L/DOX cells, 72 hours treatment, CellTiter-Glo cell viability, read-out: IC50, Breast cancer cell line MDA-MB-231-L/DOX

Structure (SMILES)	IC50 [1]	IC50 [2]	IC50 [3]	IC50 [4]	IC50 [5]	IC50 [6]	IC50 [7]	IC50 [8]	IC50 [9]	IC50 [10]	IC50 [11]	IC50 [12]	IC50 [13]	IC50 [14]	IC50 [15]	IC50 [16]	IC50 [17]	IC50 [18]
CC(=O)c1c(S/C=C\C(=O)O)[nH]c2c(Br)ccc(Cl)c2c1=O [Compound 67, (Z)-3-((3-acetyl-8-bromo-5-chloro-4-oxo-1,4-dihydroquinolin-2-yl)thio)acrylic acid]	> 2000 nM	> 2000 nM	> 10000 nM	> 2000 nM	> 10000 nM	> 2000 nM	> 2000 nM	> 2000 nM	> 2000 nM	–	–	–	–	–	–	–	–	–
COc1ccccc1[S+]([O-])c1[nH]c2c(Br)ccc(Cl)c2c(=O)c1C(C)=O (centres unmarked) [Compound 15, 3-acetyl-8-bromo-5-chloro-2-((2-methoxyphenyl)sulfinyl)quinolin-4(1H)-one]	> 2000 nM	> 2000 nM	> 10000 nM	> 2000 nM	> 10000 nM	> 2000 nM	> 2000 nM	> 2000 nM	1680 nM	–	–	–	–	–	–	–	–	–
CC(=O)c1c([S+]([O-])Cc2ccc(NS(C)(=O)=O)cc2)[nH]c2c(Br)ccc(Cl)c2c1=O (centres unmarked) [Compound 103, N-(4-(((3-acetyl-8-bromo-5-chloro-4-oxo-1,4-dihydroquinolin-2-yl)sulfinyl)methyl)phenyl)methane-sulfonamide]	–	–	–	–	–	–	–	–	–	> 2000 nM	> 10000 nM	> 2000 nM	> 10000 nM	> 2000 nM	> 2000 nM	> 2000 nM	1740 nM	> 2000 nM
CSc1c(C(C)=O)c(=O)c2c(Cl)ccc(Br)c2n1S(=O)(=O)c1ccc([N+](=O)[O-])cc1 [Compound 38, 3-acetyl-8-bromo-5-chloro-2-(methylthio)-1-((4-nitrophenyl)sulfonyl)quinolin-4(1H)-one]	> 2000 nM	> 2000 nM	> 10000 nM	> 2000 nM	> 10000 nM	> 2000 nM	> 2000 nM	> 2000 nM	> 2000 nM	–	–	–	–	–	–	–	–	–
CC(=O)c1c(S(C)(=O)=O)n(C(=O)c2ccc(Br)cc2)c2c(Br)ccc(Cl)c2c1=O [Compound 21, 3-acetyl-8-bromo-1-(4-bromobenzoyl)-5-chloro-2-(methylsulfonyl)quinolin-4(1H)-one]	> 2000 nM	> 2000 nM	> 10000 nM	> 2000 nM	> 10000 nM	> 2000 nM	> 2000 nM	> 2000 nM	> 2000 nM	–	–	–	–	–	–	–	–	–
CC(=O)c1c([S+]([O-])C(C)C)[nH]c2c(Br)ccc(Cl)c2c1=O (centres unmarked) [Compound 25, 3-acetyl-8-bromo-5-chloro-2-(isopropylsulfinyl)quinolin-4(1H)-one]	> 2000 nM	> 2000 nM	> 10000 nM	> 2000 nM	> 10000 nM	> 2000 nM	> 2000 nM	> 2000 nM	1720 nM	–	–	–	–	–	–	–	–	–
CC(=O)c1c([S+]([O-])Cc2ccccc2)nc2c(Br)ccc(Cl)c2c1O (centres unmarked) [Compound 4]	–	> 2000 nM	> 10000 nM	> 2000 nM	> 10000 nM	> 2000 nM	> 2000 nM	> 2000 nM	910 nM	–	–	–	–	–	–	–	–	–
CC(=O)c1c([S+]([O-])Cc2ccc(C(F)(F)F)o2)[nH]c2c(F)ccc(F)c2c1=O (centres unmarked) [Compound 81, 3-acetyl-5,8-difluoro-2-(((5-(trifluoromethyl)furan-2-yl)methyl)sulfinyl)quinolin-4(1H)-one]	> 2000 nM	> 2000 nM	> 10000 nM	> 2000 nM	> 10000 nM	> 2000 nM	> 2000 nM	> 2000 nM	> 2000 nM	–	–	–	–	–	–	–	–	–
O=C(c1c([S+]([O-])Cc2ccc(SC(F)(F)F)cc2)[nH]c2c(Br)ccc(Cl)c2c1=O)C1CC1 (centres unmarked) [Compound 101, 8-bromo-5-chloro-3-(cyclopropanecarbonyl)-2-((4-((trifluoromethyl)thio)benzyl)sulfinyl)quinolin-4(1H)-one]	–	–	–	–	–	–	–	–	–	> 2000 nM	> 10000 nM	1220 nM	> 10000 nM	> 2000 nM	> 2000 nM	1670 nM	1670 nM	> 2000 nM
CC(=O)c1c(SCc2cccc(C#N)c2)[nH]c2c(Br)ccc(Cl)c2c1=O [Compound 27, 3-(((3-acetyl-8-bromo-5-chloro-4-oxo-1,4-dihydroquinolin-2-yl)thio)methyl)benzonitrile]	> 2000 nM	> 2000 nM	> 10000 nM	> 2000 nM	> 10000 nM	> 2000 nM	> 2000 nM	> 2000 nM	> 2000 nM	–	–	–	–	–	–	–	–	–
CC(=O)c1c(SCC#N)[nH]c2c(Br)ccc(Cl)c2c1=O [Compound 66, 2-((3-acetyl-8-bromo-5-chloro-4-oxo-1,4-dihydroquinolin-2-yl)thio)acetonitrile]	> 2000 nM	> 2000 nM	> 10000 nM	> 2000 nM	> 10000 nM	> 2000 nM	> 2000 nM	> 2000 nM	> 2000 nM	–	–	–	–	–	–	–	–	–
O=C(c1ccccc1)c1c([S+]([O-])Cc2ccc(S(F)(F)(F)(F)F)cc2)[nH]c2c(F)ccc(F)c2c1=O (centres unmarked) [Compound 87, 3-benzoyl-5,8-difluoro-2-((4-(pentafluoro--sulfanyl)benzyl)sulfinyl)quinolin-4(1H)-one]	–	–	–	–	–	–	–	–	–	> 2000 nM	> 10000 nM	> 2000 nM	> 10000 nM	> 2000 nM	> 2000 nM	> 2000 nM	> 2000 nM	> 2000 nM
CC(=O)c1c([S+]([O-])Cc2ccc(S(F)(F)(F)(F)F)cc2)[nH]c2c(F)ccc(F)c2c1=O (centres unmarked) [Compound 80, 3-acetyl-5,8-difluoro-2-((4-(pentafluoro--sulfanyl)benzyl)sulfinyl)quinolin-4(1H)-one]	> 2000 nM	> 2000 nM	> 10000 nM	> 2000 nM	> 10000 nM	> 2000 nM	> 2000 nM	> 2000 nM	> 2000 nM	–	–	–	–	–	–	–	–	–
CC(=O)c1c(SCc2ccc(F)c(Cl)c2)[nH]c2c(Br)ccc(Cl)c2c1=O [Compound 30, 3-acetyl-8-bromo-5-chloro-2-((3-chloro-4-fluorobenzyl)thio)quinolin-4(1H)-one]	> 2000 nM	> 2000 nM	> 10000 nM	> 2000 nM	> 10000 nM	> 2000 nM	> 2000 nM	> 2000 nM	> 2000 nM	–	–	–	–	–	–	–	–	–

The next lines start with the values.

IC50 [1]	IC50 [2]	IC50 [3]	IC50 [4]	IC50 [5]	IC50 [6]	IC50 [7]	IC50 [8]	IC50 [9]	IC50 [10]	IC50 [11]	IC50 [12]	IC50 [13]	IC50 [14]	IC50 [15]	IC50 [16]	IC50 [17]	IC50 [18]	Structure (SMILES)
> 2000 nM	> 2000 nM	> 10000 nM	> 2000 nM	> 10000 nM	> 2000 nM	> 2000 nM	> 2000 nM	> 2000 nM	–	–	–	–	–	–	–	–	–	CC(=O)c1c(SCc2ccccc2)nc2c(Br)ccc(Cl)c2c1O [Compound 52, 1-(2-(benzylthio)-8-bromo-5-chloro-4-hydroxyquinolin-3-yl)ethan-1-one]
–	–	–	–	–	–	–	–	–	> 2000 nM	> 10000 nM	1040 nM	> 10000 nM	> 2000 nM	> 2000 nM	980 nM	980 nM	> 2000 nM	Cc1cc(C[S+]([O-])c2[nH]c3c(Br)ccc(Cl)c3c(=O)c2C(=O)C2CC2)no1 (centres unmarked) [Compound 96, 8-bromo-5-chloro-3-(cyclopropanecarbonyl)-2-(((5-methylisoxazol-3-yl)methyl)sulfinyl)quinolin-4(1H)-one]
–	–	–	–	–	–	–	–	–	> 2000 nM	> 10000 nM	> 2000 nM	> 10000 nM	> 2000 nM	> 2000 nM	> 2000 nM	> 2000 nM	> 2000 nM	COc1cccc2[nH]c(SCc3ccc(S(F)(F)(F)(F)F)cc3)c(C(C)=O)c(=O)c12 [Compound 92, 3-acetyl-5-methoxy-2-((4-(pentafluoro--sulfanyl)benzyl)thio)quinolin-4(1H)-one]
> 2000 nM	> 2000 nM	> 10000 nM	> 2000 nM	> 10000 nM	> 2000 nM	> 2000 nM	> 2000 nM	> 2000 nM	–	–	–	–	–	–	–	–	–	CC(=O)c1c(S(C)(=O)=O)n(S(=O)(=O)c2ccc(C(C)(C)C)cc2)c2c(Br)ccc(Cl)c2c1=O [Compound 41, 3-acetyl-8-bromo-1-((4-(tert-butyl)phenyl)sulfonyl)-5-chloro-2-(methylsulfonyl)quinolin-4(1H)-one]
–	–	–	–	–	–	–	–	–	> 2000 nM	> 10000 nM	780 nM	> 10000 nM	> 2000 nM	1780 nM	760 nM	760 nM	1130 nM	Cc1cc(C[S+]([O-])c2[nH]c3c(Cl)ccc(Cl)c3c(=O)c2C(=O)C2CC2)no1 (centres unmarked) [Compound 97, 5,8-dichloro-3-(cyclopropanecarbonyl)-2-(((5-methylisoxazol-3-yl)methyl)sulfinyl)quinolin-4(1H)-one]
> 2000 nM	> 2000 nM	> 10000 nM	> 2000 nM	> 10000 nM	> 2000 nM	> 2000 nM	> 2000 nM	1120 nM	–	–	–	–	–	–	–	–	–	CC(=O)c1c([S+](C)[O-])[nH]c2c(Cl)ccc(Cl)c2c1=O (centres unmarked) [Compound 6, 3-acetyl-5,8-dichloro-2-(methylsulfinyl)quinolin-4(1H)-one]
> 2000 nM	> 2000 nM	> 10000 nM	> 2000 nM	> 10000 nM	> 2000 nM	> 2000 nM	> 2000 nM	850 nM	–	–	–	–	–	–	–	–	–	CC(=O)c1c([S+](C)[O-])n(C(=O)c2ccc(Br)cc2)c2c(Br)ccc(Cl)c2c1=O (centres unmarked) [Compound 9, 3-acetyl-8-bromo-1-(4-bromobenzoyl)-5-chloro-2-(methylsulfinyl)quinolin-4(1H)-one]
